Laboratory results as given in patent US11464763B2, “Parasiticidal compositions comprising an isoxazoline active agent, methods and uses thereof” (BOEHRINGER INGELHEIM ANIMAL HEALTH USA INC., priority 2011, dated 2022).

What was measured:
Ctenocephalides felis = assay: Long lasting spot-on efficacy against Ctenocephalides felis fleas in cats (Example 9); format: in vivo
Protocol: The efficacy of spot-on compositions comprising Cmpd. A in DMI at different doses against Ctenocephalides felis fleas in cats was studied. Four treatment groups were formed with five cats per treatment group: Group 1—untreated control; Group 2—Compound A at 5.0% (w/v) in DMI to deliver a dose of 5 mg/kg; Group 3—Compound A at a concentration of 10.0% (w/v) in DMI to deliver a dose of 10 mg/kg; and Group 4—Compound A at a concentration of 15.0% (w/v) in DMI to deliver a dose of 15 mg/kg. Treatment was administered once on Day 0. The cats were each infested with approximately 100 C. felis fleas at each time point evaluated.
Cats in all treatment groups were infested on Days −1, 0 (approx. 12 h following treatment), 7, 28, 49, 70, 91, 105, 119 and 133. Cats were also infested on Days 126 and 140 (Treatment Groups 1 and 2); Days 147, 154, 155, 161, 168 and 175 (Treatment Groups 1, 3 and 4); Days 182, 189 and 197 (Treatment Groups 1 and 4). After each infestation, fleas were removed and counted approximately 48 hours (±3 hours) for most time points.

Rhipicephalus sanguineus = assay: Spot-on efficacy against Rhipicephalus sanguineus ticks in dogs, three DES formulations (Example 6); format: in vivo; details: for % Reduction: 48 h count
Protocol: A further study was conducted to examine the efficacy of a topical formulations comprising Compound A in three different formulations containing DES against ticks in dogs. Twenty-four beagles were studied to determine the effectiveness against induced infestations of Rhipicephalus sanguineus of spot-on formulations comprising Cmpd. A in different carriers administered at 4.0 mg/kg to dogs.
Treatment Group 1 dogs were treated with a placebo solution. Treatment Group 2 was treated with a formulation comprising 6% (w/v) Cmpd. A in DES; Treatment Group 3 were treated with a composition comprising 6% (w/v) Cmpd. A in 40% DES/DMI; and Treatment Group 4 were treated with a formulation comprising 6% (w/v) Cmpd. A in DES with 30% Capryol 90. All dogs were treated once topically on Day 0. Topical solutions were applied by parting the hair and applying the solution from a syringe directly onto the skin in a single spot on the midline of the neck between the base of the skull and the shoulder blades.
All dogs were infested with approximately 50 R. sanguineus on Days −1, 7, 14, 21, 28, 35 and 42. Ticks were counted upon removal from dogs on Days 2, 9, 16, 23, 30, 37, and 44. All ticks were counted upon removal at 48 (±3) hours post treatment or infestation.
The percent efficacies of the treated groups compared to the untreated control group were determined for the 48 hour post-treatment/infestation counts. Treatment Group 3 maintained ≥90% efficacy 48 hours after infestation at every sampling time from Day 9 through Day 44. Treatment Group 2 was able to maintain at least 90% efficacy 48 hours after infestation throughout the six weeks of the study.

Structure (SMILES): O=C(CNC(=O)c1ccc(C2=NOC(c3cc(Cl)cc(C(F)(F)F)c3)(C(F)(F)F)C2)c2ccccc12)NCC(F)(F)F (stereo not shown) [Compound A, 4-[5-[3-chloro-5-(trifluoromethyl)phenyl]-4,5-dihydro-5-(trifluoromethyl)-3-isoxazolyl]-N-[2-oxo-2-[(2,2,2-trifluoroethyl)amino]ethyl]-1-naphthalanecarboxamide]
- efficacy against fleas (Ctenocephalides felis; Group 2 (5 mg/kg), up to Day 121): 90%
- % Reduction Fleas (Ctenocephalides felis; Group 2: 5.0% in DMI, 5 mg/kg, Day 0 (12 hr)): 61.1%
- % Reduction Fleas (Ctenocephalides felis; Group 2: 5.0% in DMI, 5 mg/kg, Day 2): 100.0%
- % Reduction Fleas (Ctenocephalides felis; Group 2: 5.0% in DMI, 5 mg/kg, Day 9): 100.0%
- % Reduction Fleas (Ctenocephalides felis; Group 2: 5.0% in DMI, 5 mg/kg, Day 30): 100.0%
- % Reduction Fleas (Ctenocephalides felis; Group 2: 5.0% in DMI, 5 mg/kg, Day 51): 100.0%
- % Reduction Fleas (Ctenocephalides felis; Group 2: 5.0% in DMI, 5 mg/kg, Day 72): 100.0%
- % Reduction Fleas (Ctenocephalides felis; Group 2: 5.0% in DMI, 5 mg/kg, Day 93): 100.0%
- % Reduction Fleas (Ctenocephalides felis; Group 2: 5.0% in DMI, 5 mg/kg, Day 107): 100.0%
- % Reduction Fleas (Ctenocephalides felis; Group 2: 5.0% in DMI, 5 mg/kg, Day 121): 92.3%
- % Reduction Fleas (Ctenocephalides felis; Group 2: 5.0% in DMI, 5 mg/kg, Day 128): 89.1%
- % Reduction Fleas (Ctenocephalides felis; Group 2: 5.0% in DMI, 5 mg/kg, Day 135): 88.3%
- % Reduction Fleas (Ctenocephalides felis; Group 2: 5.0% in DMI, 5 mg/kg, Day 142): 80.0%
- efficacy against fleas (Ctenocephalides felis; Group 3 (10 mg/kg), up to Day 163): 90%
- % Reduction Fleas (Ctenocephalides felis; Group 3: 10.0% in DMI, 10 mg/kg, Day 0 (12 hr)): 95.4%
- % Reduction Fleas (Ctenocephalides felis; Group 3: 10.0% in DMI, 10 mg/kg, Day 2): 100.0%
- % Reduction Fleas (Ctenocephalides felis; Group 3: 10.0% in DMI, 10 mg/kg, Day 9): 100.0%
- % Reduction Fleas (Ctenocephalides felis; Group 3: 10.0% in DMI, 10 mg/kg, Day 30): 100.0%
- % Reduction Fleas (Ctenocephalides felis; Group 3: 10.0% in DMI, 10 mg/kg, Day 51): 100.0%
- % Reduction Fleas (Ctenocephalides felis; Group 3: 10.0% in DMI, 10 mg/kg, Day 72): 100.0%
- % Reduction Fleas (Ctenocephalides felis; Group 3: 10.0% in DMI, 10 mg/kg, Day 93): 100.0%
- % Reduction Fleas (Ctenocephalides felis; Group 3: 10.0% in DMI, 10 mg/kg, Day 107): 100.0%
- % Reduction Fleas (Ctenocephalides felis; Group 3: 10.0% in DMI, 10 mg/kg, Day 121): 100.0%
- % Reduction Fleas (Ctenocephalides felis; Group 3: 10.0% in DMI, 10 mg/kg, Day 135): 99.8%
- % Reduction Fleas (Ctenocephalides felis; Group 3: 10.0% in DMI, 10 mg/kg, Day 149): 99.5%
- % Reduction Fleas (Ctenocephalides felis; Group 3: 10.0% in DMI, 10 mg/kg, Day 155): 50.0%
- % Reduction Fleas (Ctenocephalides felis; Group 3: 10.0% in DMI, 10 mg/kg, Day 157): 98.1%
- % Reduction Fleas (Ctenocephalides felis; Group 3: 10.0% in DMI, 10 mg/kg, Day 163): 94.5%
- % Reduction Fleas (Ctenocephalides felis; Group 3: 10.0% in DMI, 10 mg/kg, Day 170): 87.8%
- % Reduction Fleas (Ctenocephalides felis; Group 3: 10.0% in DMI, 10 mg/kg, Day 177): 70.8%
- efficacy against fleas (Ctenocephalides felis; Group 4 (15 mg/kg), up to Day 191): 90%
- % Reduction Fleas (Ctenocephalides felis; Group 4: 15.0% in DMI, 15 mg/kg, Day 0 (12 hr)): 85.3%
- % Reduction Fleas (Ctenocephalides felis; Group 4: 15.0% in DMI, 15 mg/kg, Day 2): 100.0%
- % Reduction Fleas (Ctenocephalides felis; Group 4: 15.0% in DMI, 15 mg/kg, Day 9): 100.0%
- % Reduction Fleas (Ctenocephalides felis; Group 4: 15.0% in DMI, 15 mg/kg, Day 30): 100.0%
- % Reduction Fleas (Ctenocephalides felis; Group 4: 15.0% in DMI, 15 mg/kg, Day 51): 100.0%
- % Reduction Fleas (Ctenocephalides felis; Group 4: 15.0% in DMI, 15 mg/kg, Day 72): 100.0%
- % Reduction Fleas (Ctenocephalides felis; Group 4: 15.0% in DMI, 15 mg/kg, Day 93): 100.0%
- % Reduction Fleas (Ctenocephalides felis; Group 4: 15.0% in DMI, 15 mg/kg, Day 107): 100.0%
- % Reduction Fleas (Ctenocephalides felis; Group 4: 15.0% in DMI, 15 mg/kg, Day 121): 100.0%
- % Reduction Fleas (Ctenocephalides felis; Group 4: 15.0% in DMI, 15 mg/kg, Day 135): 100.0%
- % Reduction Fleas (Ctenocephalides felis; Group 4: 15.0% in DMI, 15 mg/kg, Day 149): 100.0%
- % Reduction Fleas (Ctenocephalides felis; Group 4: 15.0% in DMI, 15 mg/kg, Day 155): 78.0%
- % Reduction Fleas (Ctenocephalides felis; Group 4: 15.0% in DMI, 15 mg/kg, Day 157): 100.0%
- % Reduction Fleas (Ctenocephalides felis; Group 4: 15.0% in DMI, 15 mg/kg, Day 163): 100.0%
- % Reduction Fleas (Ctenocephalides felis; Group 4: 15.0% in DMI, 15 mg/kg, Day 170): 96.2%
- % Reduction Fleas (Ctenocephalides felis; Group 4: 15.0% in DMI, 15 mg/kg, Day 177): 94.8%
- % Reduction Fleas (Ctenocephalides felis; Group 4: 15.0% in DMI, 15 mg/kg, Day 184): 95.7%
- % Reduction Fleas (Ctenocephalides felis; Group 4: 15.0% in DMI, 15 mg/kg, Day 191): 90.6%
- % Reduction Fleas (Ctenocephalides felis; Group 4: 15.0% in DMI, 15 mg/kg, Day 199): 79.2%
- % Reduction (Rhipicephalus sanguineus; Group 2: 6% in DES, 4.0 mg/kg, Day 2): 93.2%
- % Reduction (Rhipicephalus sanguineus; Group 2: 6% in DES, 4.0 mg/kg, Day 9): 100.0%
- % Reduction (Rhipicephalus sanguineus; Group 2: 6% in DES, 4.0 mg/kg, Day 16): 100.0%
- % Reduction (Rhipicephalus sanguineus; Group 2: 6% in DES, 4.0 mg/kg, Day 23): 100.0%
- % Reduction (Rhipicephalus sanguineus; Group 2: 6% in DES, 4.0 mg/kg, Day 30): 97.8%
- % Reduction (Rhipicephalus sanguineus; Group 2: 6% in DES, 4.0 mg/kg, Day 37): 95.3%
- % Reduction (Rhipicephalus sanguineus; Group 2: 6% in DES, 4.0 mg/kg, Day 44): 97.5%
- % Reduction (Rhipicephalus sanguineus; Group 3: 6% in 40% DES/DMI, 4.0 mg/kg, Day 2): 72.8%
- % Reduction (Rhipicephalus sanguineus; Group 3: 6% in 40% DES/DMI, 4.0 mg/kg, Day 9): 100.0%
- % Reduction (Rhipicephalus sanguineus; Group 3: 6% in 40% DES/DMI, 4.0 mg/kg, Day 16): 100.0%
- % Reduction (Rhipicephalus sanguineus; Group 3: 6% in 40% DES/DMI, 4.0 mg/kg, Day 23): 100.0%
- % Reduction (Rhipicephalus sanguineus; Group 3: 6% in 40% DES/DMI, 4.0 mg/kg, Day 30): 100.0%
- % Reduction (Rhipicephalus sanguineus; Group 3: 6% in 40% DES/DMI, 4.0 mg/kg, Day 37): 93.5%
- % Reduction (Rhipicephalus sanguineus; Group 3: 6% in 40% DES/DMI, 4.0 mg/kg, Day 44): 82.9%
- % Reduction (Rhipicephalus sanguineus; Group 4: 6% in DES with 30% Capryol 90, 4.0 mg/kg, Day 2): 97.2%
- % Reduction (Rhipicephalus sanguineus; Group 4: 6% in DES with 30% Capryol 90, 4.0 mg/kg, Day 9): 100.0%
- % Reduction (Rhipicephalus sanguineus; Group 4: 6% in DES with 30% Capryol 90, 4.0 mg/kg, Day 16): 100.0%
- % Reduction (Rhipicephalus sanguineus; Group 4: 6% in DES with 30% Capryol 90, 4.0 mg/kg, Day 23): 100.0%
- % Reduction (Rhipicephalus sanguineus; Group 4: 6% in DES with 30% Capryol 90, 4.0 mg/kg, Day 30): 98.4%
- % Reduction (Rhipicephalus sanguineus; Group 4: 6% in DES with 30% Capryol 90, 4.0 mg/kg, Day 37): 96.1%
- % Reduction (Rhipicephalus sanguineus; Group 4: 6% in DES with 30% Capryol 90, 4.0 mg/kg, Day 44): 78.1%
- efficacy 48 hours after infestation (Rhipicephalus sanguineus; Treatment Group 2, throughout the six weeks of the study): ≥ 90%
- efficacy 48 hours after infestation (Rhipicephalus sanguineus; Treatment Group 3, Day 9 through Day 44): ≥ 90%
